According to US4007167A, “Antibiotic BM123 and production thereof” (American Cyanamid Company, priority 1975, dated 1977):
Converted amounts (≈) assume the structure as drawn.

How the values were obtained:
Klebsiella pneumoniae AD [1] = test: in vitro MIC, standard agar dilution procedure; format: cell-based; details: for MIC: read-out: Minimal Inhibitory Concentration
[2] = test system: Proteus mirabilis ATCC 4671; test: in vitro MIC, standard agar dilution procedure; format: cell-based; details: for MIC: ATCC4671, read-out: Minimal Inhibitory Concentration
[3] = test system: Pseudomonas aeruginosa 1A7; test: in vitro MIC, standard agar dilution procedure; format: cell-based; details: for MIC: read-out: Minimal Inhibitory Concentration
[4] = test system: Proteus vulgaris ATCC 9484; test: in vitro MIC, standard agar dilution procedure; format: cell-based; details: for MIC: ATCC9484, read-out: Minimal Inhibitory Concentration
[5] = test system: Streptococcus faecalis GK; test: in vitro MIC, standard agar dilution procedure; format: cell-based; details: for MIC: Enterococcus faecalis, read-out: Minimal Inhibitory Concentration
[6] = test system: Proteus morganii ATCC 8019; test: in vitro MIC, standard agar dilution procedure; format: cell-based; details: for MIC: Morganella morganii, ATCC8019, read-out: Minimal Inhibitory Concentration
[7] = test system: Bacillus subtilis No. 18 Stansly R-76; test: in vitro MIC, standard agar dilution procedure; format: cell-based; details: for MIC: read-out: Minimal Inhibitory Concentration
Shigella shiga = test: microbe, parasite or virus in culture; format: cell-based; details: for MIC: Shigella, read-out: Minimal Inhibitory Concentration; for Minimal Inhibitory Concentration: Shigella shiga, agar dilution
[8] = test system: Mycobacterium smegmatis ATCC 607; test: in vitro MIC, standard agar dilution procedure; format: cell-based; details: for MIC: Mycolicibacterium smegmatis, ATCC607, read-out: Minimal Inhibitory Concentration
[9] = test system: Enterobacter aerogenes 75; test: in vitro MIC, standard agar dilution procedure; format: cell-based; details: for MIC: Klebsiella aerogenes, read-out: Minimal Inhibitory Concentration
[10] = test system: Corynebacterium xerosis NRRL B-1397; test: in vitro MIC, standard agar dilution procedure; format: cell-based; details: for MIC: NRRLB1397, read-out: Minimal Inhibitory Concentration
Sarcina lutea ATCC 9341 = test: in vitro MIC, standard agar dilution procedure; format: cell-based; details: for MIC: Micrococcus luteus, ATCC9341, read-out: Minimal Inhibitory Concentration
[11] = test system: Bacillus cereus ATCC 9634; test: in vitro MIC, standard agar dilution procedure; format: cell-based; details: for MIC: ATCC9634, read-out: Minimal Inhibitory Concentration
Escherichia coli U-311 = test: in vitro MIC, standard agar dilution procedure; format: cell-based; details: for MIC: U311, read-out: Minimal Inhibitory Concentration
[12] = test system: Bacillus subtilis No. 17 Stansly R-78; test: in vitro MIC, standard agar dilution procedure; format: cell-based; details: for MIC: read-out: Minimal Inhibitory Concentration
Escherichia coli No. 29 = test: in vitro MIC, standard agar dilution procedure; format: cell-based; details: for MIC: read-out: Minimal Inhibitory Concentration
[13] = test system: Staphylococcus aureus 4050B122-3; test: in vitro MIC, standard agar dilution procedure; format: cell-based; details: for MIC: 4050B1223, read-out: Minimal Inhibitory Concentration
[14] = test system: Salmonella typhosa ATCC 6539; test: in vitro MIC, standard agar dilution procedure; format: cell-based; details: for MIC: Salmonella enterica, read-out: Minimal Inhibitory Concentration; for Minimal Inhibitory Concentration: Salmonella typhosa ATCC 6539, agar dilution
[15] = test system: Staphylococcus aureus Smith ATCC 13709; test: in vitro MIC, standard agar dilution procedure; format: cell-based; details: for MIC: ATCC13709, read-out: Minimal Inhibitory Concentration
[16] = test system: Pseudomonas aeruginosa ATCC 10145; test: in vitro MIC, standard agar dilution procedure; format: cell-based; details: for MIC: ATCC10145, read-out: Minimal Inhibitory Concentration
[17] = test system: Salmonella gallinarum 605; test: in vitro MIC, standard agar dilution procedure; format: cell-based; details: for MIC: Salmonella enterica, read-out: Minimal Inhibitory Concentration
[18] = test system: Staphylococcus aureus Rose ATCC 14154; test: in vitro MIC, standard agar dilution procedure; format: cell-based; details: for MIC: ATCC14154, read-out: Minimal Inhibitory Concentration
Bacillus globigii = test: in vitro MIC, standard agar dilution procedure; format: cell-based
a variety of organisms = test: in vivo antibacterial activity (general statement); details: in words
Klebsiella pneumoniae AD [19] = test: control of systemic lethal infection in mice, single subcutaneous dose; format: in vivo, mice (Carworth Farms CF-1)
Experimental: (§1) These new substances show high in vivo antibacterial activity in mice against Proteus mirabilis ATCC 4671, Klebsiella pneumoniae AD, and Escherichia coli US311 when administered by a single subcutaneous dose to groups of Carworth Farms CF-1 mice, weight about 20 gm., infected intraperitoneally with a lethal dose of these bacteria in 10^-^1.6 , 10^-^4 and 10^-^3 trypticase soy broth TSP dilutions, respectively, of a 5 hour TSP blood culture.
(§2) Table VII, below, illustrates the in vivo antibacterial activity of BM123α, BM123β, and BM123γ against these three bacteria.

Escherichia coli US311 = test: as above; format: in vivo, mice (Carworth Farms CF-1)
Experimental: as §1, §2

[20] = test system: Proteus mirabilis ATCC 4671; test: as above; format: in vivo, mice (Carworth Farms CF-1)
Experimental: as §1, §2

[21] = single subcutaneous dose 32 mg./kg.
[22] = single subcutaneous dose 128 mg./kg.
[23] = single subcutaneous dose 512 mg./kg.

CC1OC(Oc2ccc(/C=C/C(=O)NCCCNCCCCN)cc2)C(NC(=N)N)C(O)C1NC(=O)NC1OCC(OC2OCC(O)C3NC(=O)N(C(N)=O)C23)C(O)C1NC(N)=O (single isomer, unassigned) [BM123γ1]
MIC (Klebsiella pneumoniae AD [1]): 0.05 µg/mL (≈ 0.0559 µM)
MIC [2]: 0.25 µg/mL (≈ 0.28 µM)
MIC [3]: 5 µg/mL (≈ 5.59 µM)
MIC [4]: 0.1 µg/mL (≈ 0.112 µM)
MIC [5]: 2.5 µg/mL (≈ 2.8 µM)
MIC [6]: 0.1 µg/mL (≈ 0.112 µM)
MIC [7]: 0.25 µg/mL (≈ 0.28 µM)
MIC (Shigella shiga): 0.25 µg/mL (≈ 0.28 µM)
MIC [8]: 0.1 µg/mL (≈ 0.112 µM)
MIC [9]: 0.1 µg/mL (≈ 0.112 µM)
MIC [10]: 0.25 µg/mL (≈ 0.28 µM)
MIC (Sarcina lutea ATCC 9341): 0.5 µg/mL (≈ 0.559 µM)
MIC [11]: 0.25 µg/mL (≈ 0.28 µM)
MIC (Escherichia coli U-311): 0.1 µg/mL (≈ 0.112 µM)
MIC [12]: 0.1 µg/mL (≈ 0.112 µM)
MIC (Escherichia coli No. 29): 0.05 µg/mL (≈ 0.0559 µM)
MIC [13]: 0.25 µg/mL (≈ 0.28 µM)
MIC [14]: 0.05 µg/mL (≈ 0.0559 µM)
MIC [15]: 0.1 µg/mL (≈ 0.112 µM)
MIC [16]: 2.5 µg/mL (≈ 2.8 µM)
MIC [17]: 0.1 µg/mL (≈ 0.112 µM)
MIC [18]: 0.25 µg/mL (≈ 0.28 µM)

CC1OC(Oc2ccc(/C=C/C(=O)NCCCNCCCCN)cc2)C(NC(=N)N)C(O)C1NC(=O)NC1OCC(OC2OCC3OC(=O)NC3C2NC(N)=O)C(O)C1NC(N)=O (single isomer, unassigned) [BM123γ2]
MIC (Klebsiella pneumoniae AD [1]): 0.05 µg/mL (≈ 0.0559 µM)
MIC [2]: 0.25 µg/mL (≈ 0.28 µM)
MIC [3]: 10 µg/mL (≈ 11.2 µM)
MIC [4]: 0.1 µg/mL (≈ 0.112 µM)
MIC [5]: 2.5 µg/mL (≈ 2.8 µM)
MIC [6]: 0.1 µg/mL (≈ 0.112 µM)
MIC [7]: 0.25 µg/mL (≈ 0.28 µM)
MIC (Shigella shiga): 0.25 µg/mL (≈ 0.28 µM)
MIC [8]: 0.25 µg/mL (≈ 0.28 µM)
MIC [9]: 0.1 µg/mL (≈ 0.112 µM)
MIC [10]: 0.25 µg/mL (≈ 0.28 µM)
MIC (Sarcina lutea ATCC 9341): 1 µg/mL (≈ 1.12 µM)
MIC [11]: 0.5 µg/mL (≈ 0.559 µM)
MIC (Escherichia coli U-311): 0.1 µg/mL (≈ 0.112 µM)
MIC [12]: 0.1 µg/mL (≈ 0.112 µM)
MIC (Escherichia coli No. 29): 0.1 µg/mL (≈ 0.112 µM)
MIC [13]: 0.5 µg/mL (≈ 0.559 µM)
MIC [14]: 0.05 µg/mL (≈ 0.0559 µM)
MIC [15]: 0.25 µg/mL (≈ 0.28 µM)
MIC [16]: 5 µg/mL (≈ 5.59 µM)
MIC [17]: 0.1 µg/mL (≈ 0.112 µM)
MIC [18]: 0.25 µg/mL (≈ 0.28 µM)

N=C(N)NCCCC(N)C(=O)NC1C(OC2C(CO)OC(OC3C(O)C(NC(=O)C4CCC(=N)N4)C(O)C(O)C3OC(N)=O)C(O)C2O)OC(CO)C(O)C1O (stereo not drawn) [BM123α]
Minimal Inhibitory Concentration (Klebsiella pneumoniae AD [1]): 5 µg/mL
Minimal Inhibitory Concentration [2]: 50 µg/mL
Minimal Inhibitory Concentration [3]: > 200 µg/mL
Minimal Inhibitory Concentration [4]: 5 µg/mL
Minimal Inhibitory Concentration [5]: > 200 µg/mL
Minimal Inhibitory Concentration (Bacillus globigii): 10 µg/mL
Minimal Inhibitory Concentration [6]: 5 µg/mL
Minimal Inhibitory Concentration [7]: 20 µg/mL
in vivo activity against a variety of organisms (a variety of organisms): active in vivo
Minimal Inhibitory Concentration (Shigella shiga): 50 µg/mL
Minimal Inhibitory Concentration [8]: 5 µg/mL
Minimal Inhibitory Concentration [9]: 10 µg/mL
Minimal Inhibitory Concentration [10]: 10 µg/mL
Minimal Inhibitory Concentration (Sarcina lutea ATCC 9341): 50 µg/mL
Minimal Inhibitory Concentration [11]: 100 µg/mL
Alive/Total Mice Tested, 7 Days After Infection (Klebsiella pneumoniae AD [19]; [21]): 0/5
Alive/Total Mice Tested, 7 Days After Infection (Klebsiella pneumoniae AD [19]; [22]): 0/5
Alive/Total Mice Tested, 7 Days After Infection (Klebsiella pneumoniae AD [19]; [23]): 4/5
Alive/Total Mice Tested, 7 Days After Infection (Escherichia coli US311; [21]): 1/5
Alive/Total Mice Tested, 7 Days After Infection (Escherichia coli US311; [22]): 5/5
Alive/Total Mice Tested, 7 Days After Infection (Escherichia coli US311; [23]): 5/5
Alive/Total Mice Tested, 7 Days After Infection ([20]; single subcutaneous dose 8 mg./kg.): 0/5
Alive/Total Mice Tested, 7 Days After Infection [20, 21]: 2/5
Alive/Total Mice Tested, 7 Days After Infection [20, 22]: 3/5
Alive/Total Mice Tested, 7 Days After Infection [20, 23]: 5/5
Minimal Inhibitory Concentration (Escherichia coli U-311): 5 µg/mL
Minimal Inhibitory Concentration [12]: 10 µg/mL
Minimal Inhibitory Concentration (Escherichia coli No. 29): 5 µg/mL
Minimal Inhibitory Concentration [13]: 100 µg/mL
Minimal Inhibitory Concentration [14]: 5 µg/mL
Minimal Inhibitory Concentration [15]: 20 µg/mL
Minimal Inhibitory Concentration [16]: 200 µg/mL
Minimal Inhibitory Concentration [17]: 5 µg/mL
Minimal Inhibitory Concentration [18]: 100 µg/mL

Gentamicin sulfate [reference compound]
Minimal Inhibitory Concentration (Klebsiella pneumoniae AD [1]): 0.05 µg/mL
Minimal Inhibitory Concentration [2]: 0.25 µg/mL
Minimal Inhibitory Concentration [3]: 5 µg/mL
Minimal Inhibitory Concentration [4]: 0.1 µg/mL
Minimal Inhibitory Concentration [5]: 2.5 µg/mL
Minimal Inhibitory Concentration (Bacillus globigii): 0.025 µg/mL
Minimal Inhibitory Concentration [6]: 0.1 µg/mL
Minimal Inhibitory Concentration [7]: 0.1 µg/mL
Minimal Inhibitory Concentration (Shigella shiga): 0.25 µg/mL
Minimal Inhibitory Concentration [8]: 0.1 µg/mL
Minimal Inhibitory Concentration [9]: 0.1 µg/mL
Minimal Inhibitory Concentration [10]: 0.025 µg/mL
Minimal Inhibitory Concentration (Sarcina lutea ATCC 9341): 0.25 µg/mL
Minimal Inhibitory Concentration [11]: 0.25 µg/mL
Minimal Inhibitory Concentration (Escherichia coli U-311): 0.05 µg/mL
Minimal Inhibitory Concentration [12]: 0.025 µg/mL
Minimal Inhibitory Concentration (Escherichia coli No. 29): 0.05 µg/mL
Minimal Inhibitory Concentration [13]: 0.25 µg/mL
Minimal Inhibitory Concentration [14]: 0.1 µg/mL
Minimal Inhibitory Concentration [15]: 0.05 µg/mL
Minimal Inhibitory Concentration [16]: 2.5 µg/mL
Minimal Inhibitory Concentration [17]: 0.05 µg/mL
Minimal Inhibitory Concentration [18]: 0.1 µg/mL

CC1OC(Oc2ccc(/C=C/C(=O)NCCCNCCCCN)cc2)C(NC(=N)N)C(O)C1NC(=O)NC1OCC(OC2OCC(O)C(N)C2NC(N)=O)C(O)C1NC(N)=O (stereo not drawn) [BM123β1]
Minimal Inhibitory Concentration (Klebsiella pneumoniae AD [1]): 0.25 µg/mL
Minimal Inhibitory Concentration [2]: 0.5 µg/mL
Minimal Inhibitory Concentration [3]: 100 µg/mL
Minimal Inhibitory Concentration [4]: 0.25 µg/mL
Minimal Inhibitory Concentration [5]: > 100 µg/mL
Minimal Inhibitory Concentration (Bacillus globigii): 0.25 µg/mL
Minimal Inhibitory Concentration [6]: 0.5 µg/mL
Minimal Inhibitory Concentration [7]: 2.5 µg/mL
Minimal Inhibitory Concentration (Shigella shiga): 2.5 µg/mL
Minimal Inhibitory Concentration [8]: 2.5 µg/mL
Minimal Inhibitory Concentration [9]: 0.5 µg/mL
Minimal Inhibitory Concentration [10]: 2.5 µg/mL
Minimal Inhibitory Concentration (Sarcina lutea ATCC 9341): 2.5 µg/mL
Minimal Inhibitory Concentration [11]: 2.5 µg/mL
Minimal Inhibitory Concentration (Escherichia coli U-311): 0.25 µg/mL
Minimal Inhibitory Concentration [12]: 0.25 µg/mL
Minimal Inhibitory Concentration (Escherichia coli No. 29): 0.25 µg/mL
Minimal Inhibitory Concentration [13]: 2.5 µg/mL
Minimal Inhibitory Concentration [14]: 0.25 µg/mL
Minimal Inhibitory Concentration [15]: 0.5 µg/mL
Minimal Inhibitory Concentration [16]: 25 µg/mL
Minimal Inhibitory Concentration [17]: 0.5 µg/mL
Minimal Inhibitory Concentration [18]: 1 µg/mL
